Reference: the supplement of paper PMC10307832

Tests used:
Assay in all cases: relative viability (nuclei count vs DMSO), 5 days (fraction); higher = more cells survive
[1] = compound: CN[C@@H]1C[C@H]2O[C@@](C)([C@@H]1OC)n1c3ccccc3c3c4c(c5c6ccccc6n2c5c31)C(=O)NC4 [Staurosporine] + CC(C)C[C@H](NC(=O)[C@H](Cc1ccccc1)NC(=O)c1cnccn1)B(O)O [Bortezomib] (partner 0.002 µM)
Procedure, shortened: (§1)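 Lung cancer cell lines were pin-tool dosed in 1536-well plates on the day after seeding, with either a lone drug or a fixed anchor-drug dose plus five library-drug doses (not always all listed) in √10 steps. Nuclei were counted on 4× images after 5 days. Relative viability is the ratio of treated-well to vehicle-well nuclei counts, with each value a median of duplicate plates.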

[2] = compound: O=c1[nH]cc(F)c(=O)[nH]1 [5-Fluorouracil] + COc1cc2c(Oc3ccc(NC(=O)C4(C(=O)Nc5ccc(F)cc5)CC4)cc3F)ccnc2cc1OCCCN1CCOCC1 [Foretinib] (partner 0.25 µM)
Procedure, shortened: as §1

[3] = compound: O=c1[nH]cc(F)c(=O)[nH]1 [5-Fluorouracil] + CS(=O)(=O)CCNCc1ccc(-c2ccc3ncnc(Nc4ccc(OCc5cccc(F)c5)c(Cl)c4)c3c2)o1 [Lapatinib] (partner 2 µM)
Procedure, shortened: as §1

[4] = compound: O=c1[nH]cc(F)c(=O)[nH]1 [5-Fluorouracil] + C[C@@H](Oc1cc(-c2cnn(C3CCNCC3)c2)cnc1N)c1c(Cl)ccc(F)c1Cl [Crizotinib] (partner 1 µM)
Procedure, shortened: as §1

Row | Cell Line | relative viability ([1]; first compound 0.005 µM) | relative viability ([1]; first compound 0.01581 µM) | relative viability ([1]; first compound 0.05 µM) | relative viability ([1]; first compound 0.1581 µM) | relative viability ([1]; first compound 0.5 µM) | relative viability ([2]; first compound 0.02 µM) | relative viability ([2]; first compound 0.2 µM) | relative viability ([2]; first compound 0.6325 µM) | relative viability ([2]; first compound 2 µM) | relative viability ([3]; first compound 0.02 µM) | relative viability ([3]; first compound 0.2 µM) | relative viability ([3]; first compound 0.6325 µM) | relative viability ([3]; first compound 2 µM) | relative viability ([4]; first compound 0.02 µM) | relative viability ([4]; first compound 0.2 µM) | relative viability ([4]; first compound 0.6325 µM) | relative viability ([4]; first compound 2 µM)
1 | NCI-H1666 | 0.638 | 0.468 | 0.493 | 0.29 | 0.189 | 0.969 | 0.672 | 0.466 | 0.405 | 0.726 | 0.418 | 0.378 | 0.318 | 0.94 | 0.406 | 0.366 | 0.344
2 | LOU-NH91 | 0.519 | 0.461 | 0.54 | 0.369 | 0.374 | 0.966 | 0.995 | 0.731 | 0.315 | 0.777 | 0.83 | 0.497 | 0.406 | 0.798 | 0.697 | 0.547 | 0.341
3 | LXF-289 | 0.822 |  | 0.257 | 0.122 | 0.0797 | 0.917 | 0.757 | 0.468 | 0.313 | 0.897 | 0.782 | 0.333 | 0.285 | 0.793 | 0.574 | 0.338 | 0.277
4 | NCI-H1299 | 1.1 | 1.03 | 0.433 | 0.255 | 0.169 | 1.14 | 1.12 | 1.08 | 0.908 | 1.05 | 0.978 | 0.959 | 0.817 | 0.952 | 0.976 | 0.943 | 0.682
5 | HARA | 0.996 | 0.351 | 0.233 | 0.115 | 0.179 | 0.884 | 0.855 | 0.875 | 0.713 | 0.922 | 0.892 | 0.657 | 0.568 | 1.4 | 1.04 | 1.06 | 1.08
6 | LU99A | 0.985 | 0.389 | 0.318 | 0.271 | 0.172 | 0.752 | 0.851 | 0.693 | 0.488 | 1.03 | 1.03 | 0.77 | 0.551 | 0.579 | 0.521 | 0.521 | 0.384
7 | 201T | 1.13 | 1.1 | 1.04 | 0.911 | 0.747 | 1.18 | 0.509 | 0.211 | 0.176 | 1.05 | 0.964 | 0.479 | 0.376 | 1.02 | 0.948 | 0.384 | 0.287
8 | HCC-827 | 0.942 | 0.874 | 0.915 | 0.564 | 0.582 | 0.879 | 0.95 | 0.602 | 0.429 | 0.159 | 0.203 | 0.191 | 0.187 | 0.859 | 0.891 | 0.604 | 0.416
9 | NCI-H1703 | 0.215 | 0.165 | 0.11 | 0.157 | 0.111 | 0.341 | 0.383 | 0.341 | 0.348 | 1.23 | 1.44 | 1.09 | 0.556 | 0.83 | 0.564 | 0.378 | 0.479
10 | NCI-H1975 | 0.22 | 0.144 | 0.143 | 0.129 |  | 0.999 | 0.898 | 0.469 | 0.259 | 0.879 | 1.09 | 0.495 | 0.333 | 1 | 1.01 | 0.429 | 0.263
11 | NCI-H2023 | 0.612 | 0.19 | 0.181 | 0.0797 | 0.0526 | 0.757 | 0.243 | 0.159 | 0.0994 | 0.719 | 0.234 | 0.0995 | 0.113 | 0.621 | 0.189 | 0.105 | 0.106
12 | ChaGo-K-1 | 0.992 |  | 0.86 | 0.243 | 0.222 | 0.975 | 0.874 | 0.724 | 0.557 |  |  |  |  | 1.15 | 1.06 | 0.821 | 0.711
13 | COR-L 105 | 0.351 | 0.257 | 0.203 | 0.22 | 0.231 | 1.2 | 1.14 | 0.929 | 0.595 | 0.362 | 0.409 | 0.367 | 0.381 | 0.852 | 0.806 | 0.647 | 0.453
14 | NCI-H2170 |  |  |  |  |  | 1 | 0.872 | 0.537 | 0.44 | 0.282 | 0.317 | 0.273 | 0.27 | 1.28 | 1.1 | 0.608 | 0.468
15 | A549 |  |  |  |  |  | 0.992 | 0.945 | 0.517 | 0.156 | 1.09 | 0.656 | 0.456 | 0.135 | 0.783 | 0.517 | 0.295 | 0.107
16 | NCI-H460 | 1.08 | 0.733 | 0.463 | 0.0074 | 0.0085 | 1.02 | 0.73 | 0.156 | 0.0731 | 0.964 | 0.446 | 0.106 | 0.0598 | 1 | 0.44 | 0.186 | 0.0322
17 | NCI-H1993 |  | 0.44 | 0.463 | 0.483 | 0.315 | 0.741 | 0.728 | 0.706 | 0.667 | 0.706 | 0.765 | 0.65 | 0.591 | 0.773 | 0.839 | 0.645 | 0.622
18 | Calu-6 | 0.844 | 0.531 | 0.313 | 0.14 | 0.0926 | 0.853 | 0.941 | 0.871 | 0.491 | 1.04 | 1.01 | 0.908 | 0.537 | 0.872 | 0.859 | 0.693 | 0.427
19 | SW 900 |  |  |  |  |  | 0.629 | 0.799 | 0.729 | 0.569 |  |  |  |  |  |  |  | 
20 | NCI-H1623 |  |  |  |  |  | 0.567 | 0.35 | 0.306 | 0.259 |  |  |  |  |  |  |  | 
21 | NCI-H322M | 1.3 | 1.14 | 0.993 | 0.78 | 0.742 | 0.976 | 0.84 | 0.749 | 0.446 | 0.615 | 0.598 | 0.559 | 0.467 | 1.09 | 0.807 | 0.699 | 0.491
